From a melting point compilation (Tetko et al.; mined from patent text by program, amines drawn as free bases though some values may be those of a salt)

Row | Structure (SMILES) | melting point
1 | O=C(CC1(c2ccccc2)CC1)C(=O)Nc1ccc2c(c1)COC2=O | 132 to 138 °C
2 | OC1CCNc2ncc(Br)cc21 (stereo not drawn) | 125 to 128 °C
3 | CN(c1n[nH]c2ncnc(Nc3cccc(Cl)c3)c12)C1CCCCC1 | 188 to 190 °C
4 | CCCCCC/C=C\CCCCCCCC(=O)N[C@H]1CCCNC(=O)C1 | 67 to 68 °C
5 | O=C(O)c1nc(-c2ccccc2Cl)nc2ccccc12 | 171 °C
6 | O=c1nc(-c2ccc[nH]2)sc2ccccc12 | 202 to 203 °C
7 | NC(=O)C[C@H](NC(=O)CCc1ccc(OCc2ccccc2)cc1OCc1ccccc1)C(=O)N1CCN(Cc2ccccc2)CC1 | 112 to 114 °C
8 | N#CN(c1ccccc1)c1nc(N(C#N)c2ccccc2)nc(N(c2ccccc2)c2ccccc2)n1 | 280 to 284 °C
9 | CCCn1c(=O)n(CCC)c2cc3c(N4CCN(C(=O)Nc5ccc(Oc6ccccc6)cc5)CC4)ncnc3cc21 | 179 to 180 °C
10 | CC(C(=O)O)c1cc(Cl)c(N2CCOCC2)cc1O (stereo not drawn) | 198 to 200 °C
11 | Fc1cccc(/C=C/C2=CCN(Cc3c[nH]c4ncccc34)CC2)c1 | 199 to 201 °C
12 | Nc1nc(NCCC2CCC3(CC2)OCCO3)nc2c1ncn2C1OC(CO)C(O)C1O (stereo not drawn) | 133 to 137 °C
13 | O=C(N1CCCC1)n1c(CN2CCN(c3ccccn3)CC2)nc2ccccc21 | 120 to 121 °C
14 | CCc1c(C(=O)O)c(C(F)F)nc(C(F)(F)F)c1C(=O)O | 237 to 239 °C
15 | N#Cc1cc2nc(O)c(O)nc2c2[nH]nnc12 | > 300 °C
16 | O=C1CCC2C3Cc4ccc(O)c5c4C2(CC[N+]3([O-])CC2CC2)C1O5 (stereo not drawn) | 209 to 211 °C
17 | CC1CN(c2n[nH]c(-c3ccc(Cl)cc3)c2-c2ccncn2)CCN1C (stereo not drawn) | 212 to 214 °C
18 | COC(=O)c1cc(C(=O)NN2CCCCC2)c2cc(Cc3ccc(F)cc3)cnc2c1O | 233 to 234 °C
19 | Clc1ccc(-c2c(CC3NCCS3)cnn2-c2ccccc2)cc1 (stereo not drawn) | 170 to 172 °C
20 | CNC1NC(=O)N(c2ccccc2)C(=O)N1N (stereo not drawn) | 242 to 244 °C

Row | Structure (SMILES) | melting point
21 | CC(C)CCNC(=NC#N)Nc1cccnc1 | 136 °C
22 | N#Cc1ccc(C(=O)Nc2cc(C(=O)NCc3ccccc3)ccn2)cc1 | 180 to 181 °C
23 | Cn1ncc(/C=C/C(=O)Nc2ccc(CCc3cscn3)cc2)c1-c1ccc(F)cc1 | 211 to 212 °C
24 | O=C(NC(=O)c1nnn(Cc2ccccc2)c1NC(=O)c1ccccc1)c1ccccc1 | 171 to 173 °C
25 | CC1(C)CCC(C)(C)c2cc(C(O)CNc3ccc(C(=O)O)c(O)c3)ccc21 (stereo not drawn) | 165 to 166 °C
26 | Nc1cccc(C(=O)O)c1NCc1ccccc1Cl | 203 to 204 °C
27 | CNc1onc2c1CCC2 | 52 °C
28 | CN1CCC(N(C)S(=O)(=O)c2ccc(Nc3nccc(Nc4cc(F)c(F)c(F)c4)n3)cc2)CC1 | 227 °C
29 | C#CCOc1cc(Oc2ccc(OC)cc2)ncn1 | 72 °C
30 | COc1cc(C(=O)NC2CC(C)(C)N(C)C(C)(C)C2)ccc1-c1nc2cc(Cl)c(Cl)cc2n1C | 178 to 180 °C
31 | CCCC1CCCNC1=O (stereo not drawn) | 75 to 76 °C
32 | N#CC(C#N)=C(NCCN1CCCCC1)N1CCC(N2CCCCC2)CC1 | 198 to 200 °C
33 | COc1ccc(CN2CCOCC2)c(OC)c1-c1ccc(C[C@H](NC(=O)c2c(Cl)cccc2Cl)C(=O)O)cc1 | 241 to 242 °C
34 | CCOc1cc(CCl)ccc1OCc1nc(-c2ccccc2)oc1C | 138 to 139 °C
35 | COc1ccc(C(=O)c2ccc(OCc3nc(-c4ccccc4)oc3C)cc2)c(OC2(C(=O)O)CCC2)c1 | 199 to 201 °C
36 | CCCOc1nsc(NC(=O)C(C)C)c1C#N | 220 to 221 °C
37 | CC(=NOCCOc1ccc(CC2SC(=O)N(C(c3ccccc3)(c3ccccc3)c3ccccc3)C2=O)cc1)c1ccc(N(C)S(=O)(=O)c2ccccc2)cc1 (stereo not drawn) | 143 to 145 °C
38 | CC(C)CN(C(=O)N(CCCl)N=O)C1(O)C(OC2CCCCC2)OC(CO)C1O (stereo not drawn) | 70 to 72 °C
39 | Cc1ncc(Cl)c(C(=O)Nc2ccn3cc(-c4ccccc4)nc3n2)n1 | > 250 °C
40 | CC(C)NC1=Nc2cccnc2SC1 | 135 to 139 °C

Row | Structure (SMILES) | melting point
41 | Cc1ccc(COc2ccc(C=NCc3ccco3)cc2)cc1 | 71 °C
42 | CC(C)c1cccc(C(C)C)c1OC(=O)CCC(=O)O | 101 to 102 °C
43 | Nc1ccccc1C(=O)OC1CCN(Cc2ccccc2)CC1 | 87 to 88 °C
44 | CCOC(=O)CN(CP(=O)(ONC1CCCCC1)ONC1CCCCC1)C(=O)C(F)(F)F | 118 to 123 °C
45 | Cc1cc(C)c(-c2ccc3c(=O)c(C(=O)O)cn(C4CC4)c3c2C)cn1 | 217 °C
46 | COc1ccc(-c2nc3ncccc3[nH]2)c2cc(C(C)C)oc12 | 242 °C
47 | Cc1c(C)c2c(c(C)c1NC(=O)CC(C)(C)C)C(c1ccc(F)cc1)C(C)(C)O2 (stereo not drawn) | 194 to 195 °C
48 | N#C/C(=C\c1ccc(O)c(O)c1)C(=O)NCCCCNC(=O)/C(C#N)=C/c1ccc(O)c(O)c1 | 283 °C
49 | CC(C)(C)c1ccc2[nH]c(C(=O)c3ccc(Cl)cc3)c(CC(=O)O)c2c1 | 171 °C
50 | COC(=O)c1cc(-c2ccncc2)ccc1C(=O)N1CCN(C(=O)OC(C)(C)C)CC1 | 144 to 146 °C
51 | O=C(CCC(=O)Oc1ccc([N+](=O)[O-])cc1)Oc1ccc([N+](=O)[O-])cc1 | 176 to 178 °C
52 | CSc1ccc(-c2coc3ccc(-c4nnc(C)o4)cc23)cc1OC(F)(F)F | 185 to 186 °C
53 | Fc1ccc(Cn2c(NC3CCNCC3)nc3ccccc32)cc1 | 216 °C
54 | CN1C(=O)CN=C(c2ccccc2F)c2cc(C#N)ccc21 | 177 °C
55 | Nc1cc(-n2cc(C(=O)O)c(=O)c3cc(F)c(F)cc32)c(F)cc1F | > 270 °C
56 | CC(C)(C)c1ccc(CCCCC(=O)CC2CCCCC2)cc1NC(=O)CC1c2ccccc2Oc2ccccc21 | 126 to 127 °C
57 | COc1ccc([C@@H]2CCc3cc(OC)ccc3[C@@H]2CCn2ccnc2)cc1 (relative stereo) | 121 °C
58 | c1csc(-c2nc3cc(COc4ccc(CCCn5ccnc5)cc4)ccc3o2)c1 | 130 to 131 °C

Now from value to compound:

Row | melting point | Structure (SMILES)
59 | 150 to 151 °C | O=C(CCCCCBr)c1c[nH]c2ccccc12
60 | 77 to 78 °C | COC(=O)COc1cccc2c(CCS(=O)CCc3ccccc3)c(C)oc12 (stereo not drawn)
61 | 81 to 84 °C | COC=C(C(=O)OC)c1ccc(CC(=O)O)cc1
62 | 91 to 93 °C | CCCCCCCCCCCCCCCCN(C(=O)C(F)(F)F)c1ccc(C(=O)Nc2ccc(C(=O)OCC)cc2)cc1
63 | 84.5 °C | CCOc1ccc(C=CC(=O)c2c(OCC)cc(OCC)cc2OC(=O)CC)cc1
64 | 167 to 168 °C | CCc1nn(C)c(NC(=O)Cc2ccc(Br)cc2)c1Cl
65 | 120 to 122 °C | COCc1ccc(C[C@@H]2O[C@H](COC(C)=O)[C@@H](OC(C)=O)[C@H](OC(C)=O)[C@H]2OC(C)=O)cc1
66 | 40 to 42 °C | CCCCC(CC)COC(=O)c1cccc(S(N)(=O)=O)c1 (stereo not drawn)
67 | 183 to 190 °C | Cc1cc(C)nc(NC(=O)NS(=O)(=O)c2ccccc2OCCO)n1
68 | 160 to 161 °C | COc1cc(C(=O)O)ccc1Cc1cccc2ccc(CCCC(=O)N3CCOCC3)cc12
69 | 104 °C | CC(=O)c1ccc2ccccc2c1OCCCC(=O)O
70 | 140 to 141 °C | Cc1cc(C(=O)NCO)ncc1C(c1c(F)ccc(F)c1F)S(=O)(=O)c1ccc(OC(F)(F)F)cc1 (stereo not drawn)
71 | 166 to 168 °C | CCC(=O)c1c(C)[nH]c(-c2ccccc2)c1N
72 | 230 °C | COC(=O)c1cc(C(=O)c2nc(Br)c3ccccn23)ccc1N
73 | 186 to 187 °C | N#CCCNC(=O)c1cccc(-c2ccc3ccn(Cc4ccc(Cl)cc4Cl)c3n2)c1
74 | 227 to 229 °C | COc1cccc(-n2nc(C(=O)O)c3csc(N)c3c2=O)c1
75 | 152 to 153 °C | CNC(=O)[C@H]1O[C@@H]1c1ccc(C)cc1
76 | 163 to 166 °C | CCOC(=O)c1cn(Cc2ccc(-c3ccccc3-c3nnn[nH]3)cc2)c2sc(CC)c(NC(C)=O)c2c1=O
77 | 84 to 86 °C | O=C(Nc1ccc(OCC2CCCO2)c([N+](=O)[O-])c1)OCCCl (stereo not drawn)
78 | 110 to 122 °C | CC(C)Oc1ccc(NCCS(=O)(=O)NCCCOc2cccc(CN3CCCCC3)c2)cc1

Row | melting point | Structure (SMILES)
79 | 132 to 133 °C | CC(C)c1nc2c(OCc3ccccc3)cc(Br)cc2n1C
80 | 91 to 93 °C | CCNC(=O)C1CN(C(c2ccccc2)c2ccccc2)C1
81 | 105 to 107 °C | CCOC(=O)c1cn[nH]c1C(=O)CC(C)C
82 | 141 °C | CCCC(CCNC(=O)CC#N)NC(=O)CC#N (stereo not drawn)
83 | 134 to 135 °C | COC(=O)C1C(c2cccc([N+](=O)[O-])c2)C(C(=O)OC(C)C)=C(C)NC1(O)c1ccccc1 (stereo not drawn)
84 | 72 to 74 °C | CCOC(=S)c1ccc(C)c(-c2cc(C)no2)c1C
85 | 205 to 207 °C | CCOC(=O)c1ccc(COc2cccc3nc(C(=O)NCc4cccc(OC)c4)[nH]c(=O)c23)cc1
86 | 140 to 148 °C | CCCCCCCCOC(=O)C=CC(=O)OC(=C1C(=O)N(C(N)=O)c2cc(Cl)c(F)cc21)c1cccs1
87 | 157 to 159 °C | CC(C)C(=O)Nc1cc([N+](=O)[O-])cc([N+](=O)[O-])c1
88 | 166 to 167 °C | COC(=O)c1sc2c(c1C)c1ccccc1n2C
89 | 75 to 77 °C | CC(C)OC(=O)Nc1cccc(O)c1
90 | 178 to 181 °C | CC(C)(C)C(=O)NS(=O)(=O)c1cccc([N+](=O)[O-])c1
91 | 152 to 154 °C | Cc1ccc(Cl)c(Nc2ccccc2C(=O)CS(C)=O)c1Cl (stereo not drawn)
92 | 160 °C | Nc1ncnc2c1ncn2C1CC(O)(C(=O)c2cccc(C(F)(F)F)c2)C(COC(=O)c2cccc(C(F)(F)F)c2)O1 (stereo not drawn)
93 | 60 °C | COc1cccc(N(CC(=O)OC(C)(C)C)C(=O)CNC(=O)Nc2cccc(C)c2)c1
94 | 44 to 46 °C | COc1ccc2c(c1)N(C)C(=O)C2C (stereo not drawn)
95 | 111 to 113 °C | CC(=O)C=Cc1ccc(CCNS(=O)(=O)c2ccc(Cl)cc2)cc1
96 | 130 to 133 °C | CCOC(=O)C1=CC(OC)(C(C)(C)C)N(c2ccc(Cl)cc2Cl)N1 (stereo not drawn)
97 | 135 °C | O=C(NS(=O)(=O)c1cccc([N+](=O)[O-])c1)c1ccccc1Cl
98 | 77.5 to 78 °C | O=C(OCCOCCO)c1ccc(O)c(Cl)c1
